Test results taken from patent publication US20040058999A1, “Compounds with anti-hiv activity” (priority 2002, published 2004).
Like-named read-outs stand apart in the source and are kept apart here.

Experiments:
HIV virus [1] = type: cell-based; conditions: for Neutralization Index: 200 μg/ml, 37°-1 h; for Viral titre after incubation at 37°-1 h with 200 μg/ml of drug: mean of 3 experiments
HIV virus [2] = test: Viral growth curve in infected lymphoblasts cultures in the presence of the tested compounds; type: cell-based
Protocol: (§1) Lymphoblasts cultures in stationary tubes (inoculum 200,000 cells/ml) at the 4th day from implant were used. A lactalbumin medium enriched with 20% decomplemented calf serum medium was used as culture medium (TC) and, as maintaining medium (TM), after infection of the cultures, a 199 supplemented with 1% bovine crystallized albumin and 2% calf serum was used. All media were added with penicillin (100 U.I/ml) and streptomycin (100 μg/ml). Viral dilutions were carried out with 199 only.
Xenalamine (p-α-ethoxy-p-phenyl-phenacylaminobenzoic acid), xenalic acid (p-(4-biphenyl-glyoxylidene)-amino-benzoic acid) at a 12.5 μg dose; xenaldial (4,4′-bis-diphenylglyoxal hydrate) at a 25 μg dose.
The following procedure was used to evaluate the viral growth curve in the presence of the tested compounds: cultures were infected with 1 ml of viral fluid containing a cytopathogenic dose to obtain an about 1:1 LD50/cell ratio. 1 Hour after the infection at +36° C. and repeated washings with Hanks balanced saline solution, the viral fluid was replaced with TM for the control groups and with TM+drug for the tested cultures.
At time intervals, aliquots from three cultures were taken, washed with Hanks solution, then added with 1 ml of TM and frozen at −30° C.
At the end of the experiment, the culture fluids were thawed and refrozen twice, pooling each aliquot, then titred simultaneously with the corresponding fluids separated before freezing.

HTLV IIIB = test: HTLV IIIB-inhibitory activity on cultures of lymphocytes, % virus inhibition by PCR; type: cell-based
Protocol: HTLV IIIB-inhibitory activity of Xenaldial was tested on cultures of lymphocytes. The % virus inhibition was determined by means of PCR, according to the following procedure:
DNA was extracted from 5×10^4 lymphocytes using 400 μl lysate and incubating at 56° C./60′ and at 92° C./15′. Afterwards the mixture was cooled at room temperature and kept at 4° C.
The oligonucleotide SK19 (41 bases—corresponding to the internal sequence of the amplified pro-viral DNA) was synthesised, dissolved in water at a final concentration of 20 μm and 5′-labelled with polynucleotide kinase and ^32P-ATP.
Reagent preparation: Nucleotides: 125 μl of each nucleotide 10 mM were diluted to 1 ml with H2O (final concentration 1.25 mM); buffer 10×: KCl 2M—250 μl, TrisCl 1M pH8.3—100 μl, MgCl2 1M—20 μl, gelatine—10 mg, diluted to 1 ml with H2O;
Oligonucleotide pair: oligonucleotides SK38 and 39 were synthesised, purified and dissolved in a concentration of 200-300 μM.
Reaction: mixing buffer 10×, nucleotides (1.25 mM), oligonucleotide primer SK38 and SK39 15 μM, lysate, Taq polymerase 5 U/μl; denaturation 90° C./60′, annealing 55° C./30′, polymerisation 72° C./30′; repeat the cycle 30 times.

Lymphoblasts cultures = test: Maximal dose tolerated by the cultures; type: cell-based; conditions: established in previous experiments
Protocol: as §1
The dose used for each drug is the maximal dose tolerated by the cultures, established in previous experiments.

A-PR8 Influenza virus = conditions: in words; cited from earlier work
MHV-3 hepatitis virus = conditions: in words; cited from earlier work
[3] = tested on: various Arborvirus, Poxvirus, Nitavirus and Myxovirus strains; conditions: in words; cited from earlier work

**Q.** Which results are given for O.O.O=CC(=O)c1ccc(-c2ccc(C(=O)C=O)cc2)cc1 [xenaldial, 4-4′-bis-biphenylglyoxal dihydrate]?
**A.** reduction of the pathogenic activity of the virus upon exposure (% of the logarithmic values compared with controls) (HIV virus [1]; high viral titre): 8.3%; Neutralization Index (HIV virus [1]; high viral titre (starting stock 6.5)): 0.5; Viral titre after incubation at 37°-1 h with 200 μg/ml of drug (HIV virus [1]; high viral titre: starting stock titre 6.5, control after incubation 6.2): 6.0; virucidal activity (on extracellular viral particles) (HIV virus [1]; in words): marked virucidal activity; reduction of the pathogenic activity of the virus upon exposure (% of the logarithmic values compared with controls) (HIV virus [1]; low viral titre): 42.8%; Neutralization Index (HIV virus [1]; low viral titre (starting stock 4.5)): 1.5; Viral titre after incubation at 37°-1 h with 200 μg/ml of drug (HIV virus [1]; low viral titre: starting stock titre 4.5, control after incubation 3.5): 2.0; delay in the appearance of the virus in fluids compared with controls (HIV virus [2]; drug added 1 h after infection, xenalamine 12.5 μg/ml, xenaldial 25 μg/ml): 24 h; reduction of the intra- and extracellular virus amount compared with controls, time up to which observed (HIV virus [2]; xenaldial 25 μg/ml added 1 h and again 48 hours after the infection): up to 120 hours; Inhibition % (HTLV IIIB; 0.001 μM): 44%; Inhibition % (HTLV IIIB; 0.01 μM): 30%; Inhibition % (HTLV IIIB; 0.1 μM): 12%; Inhibition % (HTLV IIIB; 1 μM): 16%; Inhibition % (HTLV IIIB; 5 μM): 42%; Inhibition % (HTLV IIIB; 20 μM): 26%; Inhibition % (HTLV IIIB; 60 μM): 59%; Inhibition % (HTLV IIIB; 100 μM): 77%; maximal dose tolerated by the cultures (Lymphoblasts cultures): 25 µg; antiviral activity (A-PR8 Influenza virus): active; antiviral activity (MHV-3 hepatitis virus): active; antiviral activity [3]: active

**Q.** For O=C(O)c1ccc(N=CC(=O)c2ccc(-c3ccccc3)cc2)cc1 [xenalic acid, p-(4-biphenyl-glyoxylidene)-amino-benzoic acid], which “virucidal activity (on extracellular viral particles)” value (HIV virus [1]) is on record?
**A.** marked virucidal activity

**Q.** And the “inhibitory effect on intracellular viral replication” value (HIV virus [2]; same experimental conditions, compared with xenaldial)?
**A.** lower than that of xenaldial

**Q.** And the “maximal dose tolerated by the cultures” value (Lymphoblasts cultures)?
**A.** 12.5 µg
